Measured values published in patent publication US10071080B2, “MIF inhibitors for the acute or chronic treatment of pulmonary hypertension” (MIFCARE, priority 2014, dated 2018).

Tests used:
[1] = biological target: T1, recombinant human MIF (Homo sapiens, UniProt P14174); experiment: MIF tautomerase assay using 4-hydroxyphenylpyruvate (4-HPP); type: biochemical; conditions: for inhibition at 0.001 µM: compounds at 1 nM, substrate 4-HPP, compared to positive control with rhMIF alone
T1 construct: purchased RayBiotech
T1 sequence (P14174 2-115 limits assumed): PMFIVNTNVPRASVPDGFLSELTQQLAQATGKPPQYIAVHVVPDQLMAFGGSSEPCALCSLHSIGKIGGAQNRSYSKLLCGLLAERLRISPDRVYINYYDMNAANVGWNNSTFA
Method: Tautomerase activity was assessed using 4-hydroxyphenylpyruvate (4-HPP) as substrate. 4-HPP was dissolved in 50 mM ammonium acetate at pH 6.0, allowed to equilibrate to room temperature and stored at −20° C. 300 ng/mL of recombinant human MIF (rhMIF; RayBiotech, Le Perray en Yvelines, France) and tested compounds were pre-incubated at room temperature for 15 min. Tautomerase activity was assessed at room temperature, by adding 4-HHP to a 96-well plate containing 0.435 M boric acid at pH 6.6 and rhMIF with or without (positive control) tested compounds (1 nM), and by measuring the increase in absorbance at 320 nm over 10-360 s using the 2103 EnVision™ Multilabel Plate Readers (PerkinElmer, Villebon-sur-Yvette, France). Compounds were tested at 1 nM. The assay was replicated 3 to 6 times independently.

[2] = test system: MCT-injected rats; experiment: Rodent model of pulmonary hypertension (monocrotaline); type: in vivo; conditions: for mean pulmonary arterial pressure (mPAP): 2 weeks; for degree of established PH: started one week after MCT
Method: Animal studies were approved by the administrative panel on animal care at the Univ. Paris-Sud, Le Plessis-Robinson, France. Young male Wistar rats (100 g, Janvier Labs, France) were studied 3 weeks after a single subcutaneous injection of monocrotaline (60 mg/kg) (Sigma-Aldrich, Saint-Quentin Fallavier, France), or vehicle. One week after a single subcutaneous injection of monocrotaline (MCT), rats were randomly divided into several groups and treated for 2 weeks with • (example 3) daily intraperitoneal injections of ISO-1, compound 1 of the invention (M3), M41, or vehicle (vehicle A: 50% (v/v) DMSO (Dimethyl sulfoxide) in normal saline for i.v. administrations) at a dose of 10 mg·kg^−1·day^−1; or • (example 4) daily per os administration of compounds of the invention, or vehicle (vehicle B: 33% DMSO, 45% propylene glycol, 21% saline) at a dose of 30 mg·kg^−1·day^−1.
Animals were anesthetized with isoflurane. A polyvinyl catheter was introduced into the right jugular vein and pushed through the right ventricle into the pulmonary artery. Cardiac output in rat was measured using the thermodilution method. After measurement of hemodynamic parameters, the thorax was opened and the left lung immediately removed and frozen. The right lung was fixed in the distended state with formalin buffer. The right ventricular hypertrophy (RVH) index and the percentage of muscularized vessels were determined as previously described (Guignabert C 2009 J Faseb 23 (12): 4135-4147).

[3] = test system: iPAH P-ECs (human pulmonary endothelial cells); experiment: MTT assay, cell proliferation and survival, iPAH P-ECs; type: cell-based; conditions: iPAH EC, 24 h, effect significantly superior compared to ISO-1 (p<0.05); for cell survival: 0% FCS, at 100 μM and 50 μM
Method: (§1) P-ECs were isolated and cultured from lung specimens of patients with idiopathic pulmonary arterial hypertension (iPAH) as previously described (Tu et al., Am J Respir Cell Mol Biol. 2012). The isolated P-ECs were strongly positive for acetylated low-density lipoprotein coupled to Alexa 488 (Alexa488-Ac-LDL), von Willebrand factor (vWF), CD31, and for Ulex europaeus agglutinin-1 (UEA-1) and negative for alpha-smooth muscle actin (α-SMA). DU-145 cell lines and iPAH ECs were grown in MCDB131 medium (Fisher, Illkirch Cedex, France) supplemented with 10% fetal calf serum (FCS), penicillin-streptomycin solution, glutamine, HEPES and amphotericine.
(§2) To determine the impact of the compounds of the invention on the proliferation and the survival of DU-145 cell line and iPAH P-ECs, the methyl tetrazolium (MTT) assay was performed. To this aim, cells were plated in a 96-well plate and cultured in MCDB131 medium (Fisher, Illkirch Cedex, France) supplemented with 10% fetal calf serum (FCS) for 24 h. DU-145 and iPAH ECs monolayers were then washed and 50 or 100 μM of tested compounds were added with 0% (for cell survival assessment) or 10% (for cell proliferation assessment) of FCS for 24 h. Then, cells were incubated with 5 mg/mL of MTT for 6 h of incubation. At the end of the incubation time, medium was removed, dimethylsulfoxide (DMSO) was added in each well and absorbance was recorded at 590 nm using the microplate spectrophotometer system EnVision (PerkinElmer, Waltam, USA).

[4] = test system: DU-145 cell line; experiment: MTT assay, cell proliferation and survival, DU-145; type: cell-based; conditions: 24 h, effect significantly superior compared to ISO-1 (p<0.05); for cell survival: 0% FCS, at 100 μM and 50 μM
Method: as §1, §2

[5] = 10 mg/kg daily intraperitoneal, compared to MCT-injected rats treated with vehicle A
[6] = daily intraperitoneal 10 mg/kg/day for 2 weeks, day 21
[7] = 30 mg/kg oral daily, compared to MCT-injected rats treated with vehicle B, p<0.05
[8] = oral daily 30 mg/kg/day for 2 weeks

Cc1ccc2oc(=S)n(Cc3cccc(O)c3)c2c1 [Compound 1, 3-(3-hydroxybenzyl)-5-methylbenzo[d]oxazole-2(3H)-thione]
inhibitory effect against the MIF tautomerase activity (in words) ([1]; compound 1 compared to benzoxazol-2-one analogue M41, compounds of the invention compared to ISO-1): good inhibitory effect
inhibition at 0.001 µM [1]: 41%
mean pulmonary arterial pressure (mPAP) [2, 5]: substantial reduction in values of mPAP
degree of established PH [2, 6]: substantially attenuates the degree of established PH
mPAP, compared to MCT-injected rats treated with ISO-1 ([2]; same dose, 10 mg/kg, p=0.0855): higher beneficial effects in mPAP

COc1ccccc1Cn1c(=S)oc2ccc(C)cc21 [Compound 2, 3-(2-methoxybenzyl)-5-methylbenzo[d]oxazole-2(3H)-thione]
inhibition at 0.001 µM [1]: 36%

Cc1ccc2oc(=S)n(Cc3ccccc3)c2c1 [Compound 3, 3-benzyl-5-methylbenzo[d]oxazole-2(3H)-thione]
inhibition at 0.001 µM [1]: 35%

Cc1ccc2oc(=S)n(Cc3ccc(F)c(O)c3)c2c1 [Compound 4, 3-(4-fluoro-3-hydroxybenzyl)-5-methylbenzo[d]oxazole-2(3H)-thione]
cell survival [3]: decrease significantly cell survival
inhibition at 0.001 µM [1]: 39%
mean pulmonary arterial pressure (mPAP) [2, 7]: substantial reduction
degree of established PH [2, 8]: substantially attenuates the degree of established PH
cell survival [4]: decrease significantly cell survival

Oc1cc(Cn2c(=S)oc3ccc(C(F)(F)F)cc32)ccc1F [Compound 5, 3-(4-fluoro-3-hydroxybenzyl)-5-(trifluoromethyl)benzo[d]oxazole-2(3H)-thione]
cell survival [3]: decrease significantly cell survival
cell proliferation ([3]; 10% FCS, 50 or 100 μM): inhibit significantly cell proliferation
inhibition at 0.001 µM [1]: 43%
mean pulmonary arterial pressure (mPAP) [2, 7]: substantial reduction
degree of established PH, compared with treatment by sildenafil ([2]; compound 5 at 30 mg/kg oral daily for 2 weeks, sildenafil at 100 mg/kg): substantially attenuates the degree of established PH
degree of established PH [2, 8]: substantially attenuates the degree of established PH
cell survival [4]: decrease significantly cell survival
cell proliferation ([4]; 10% FCS, 50 or 100 μM): inhibit significantly cell proliferation

Cc1ccc2oc(=O)n(Cc3cccc(O)c3)c2c1 [Compound M41, reference compound]
inhibition at 0.001 µM [1]: 29%
mortality rate ([2]; MCT-injected rats, 10 mg/kg/day intraperitoneal): 5/6
degree of established PH [2, 6]: substantially attenuates the degree of established PH

COC(=O)CC1CC(c2ccc(O)cc2)=NO1 (stereo not shown) [ISO-1, reference compound]
inhibition at 0.001 µM [1]: 21%
mean pulmonary arterial pressure (mPAP) [2, 5]: substantial reduction in values of mPAP
